According to ChEMBL document CHEMBL3124856, “Design, synthesis, and pharmacological evaluation of a novel series of pyridopyrazine-1,6-dione γ-secretase modulators” (J Med Chem, 2014):

Tests used:
[1] = Apparent intrinsic clearance in human hepatocytes; format: ADME, cell-based, Hepatocyte; settings: read-out: CLH(app)
[2] = Passive apparent permeability from apical to basolateral side in RRCK cells; format: ADME, cell-based, Canis lupus familiaris, MDCKII-LE; settings: dog, MDCK
[3] = Half life in human hepatocytes; format: ADME, cell-based, Hepatocyte
[4] = Apparent intrinsic clearance in human liver microsomes; format: ADME; settings: read-out: CLH(app)
Gamma-secretase = assay: Modulation of gamma-secretase (unknown origin) expressed in CHO cells overexpressing human wild type APP assessed as reduction of amyloid beta 42 level after 24 hrs by ELISA; format: cell-based
MDR1 (human) = assay: Efflux ratio of permeability in MDCK cells expressing human MDR1; format: ADME, cell-based, Canis lupus familiaris; settings: dog
[5] = Apparent intrinsic clearance in rat liver microsomes; format: ADME; settings: read-out: CLH(app)

Structure (SMILES)	CLint scaled [1]	Papp A→B [2]	half-life [3]	CLint scaled [4]	IC50 (Gamma-secretase)	efflux ratio (MDR1 (human))	CLint scaled [5]
Cc1cn(-c2ccc3c(c2O)CCN(Cc2cccc(C(F)(F)F)c2)C3=O)cn1	90.5 mL/min/kg	10.4 ×10⁻⁶ cm/s	19.3 min	< 8 mL/min/kg	400 nM	1.9	
Cc1cn(-c2ccc3n(c2=O)CCN(CCOc2ccc(C(F)(F)F)cc2)C3=O)cn1				< 9.7 mL/min/kg	1270 nM	1.5	40.3 mL/min/kg
